Source: US10004732B2 (Novartis AG, priority 2014, dated 2018)
Where a name gives a salt, the structure may show the parent alone.

Experiments:
[1] = molecular target: T1, PI 3-kinase beta (Homo sapiens, UniProt P42338); assay: Kinase Glo Luminescent Kinase Assay (Kglo), assay B; assay type: biochemical; details: read-out: Assay B PI3Kβ IC50
Target sequence in this assay (P42338 whole entry): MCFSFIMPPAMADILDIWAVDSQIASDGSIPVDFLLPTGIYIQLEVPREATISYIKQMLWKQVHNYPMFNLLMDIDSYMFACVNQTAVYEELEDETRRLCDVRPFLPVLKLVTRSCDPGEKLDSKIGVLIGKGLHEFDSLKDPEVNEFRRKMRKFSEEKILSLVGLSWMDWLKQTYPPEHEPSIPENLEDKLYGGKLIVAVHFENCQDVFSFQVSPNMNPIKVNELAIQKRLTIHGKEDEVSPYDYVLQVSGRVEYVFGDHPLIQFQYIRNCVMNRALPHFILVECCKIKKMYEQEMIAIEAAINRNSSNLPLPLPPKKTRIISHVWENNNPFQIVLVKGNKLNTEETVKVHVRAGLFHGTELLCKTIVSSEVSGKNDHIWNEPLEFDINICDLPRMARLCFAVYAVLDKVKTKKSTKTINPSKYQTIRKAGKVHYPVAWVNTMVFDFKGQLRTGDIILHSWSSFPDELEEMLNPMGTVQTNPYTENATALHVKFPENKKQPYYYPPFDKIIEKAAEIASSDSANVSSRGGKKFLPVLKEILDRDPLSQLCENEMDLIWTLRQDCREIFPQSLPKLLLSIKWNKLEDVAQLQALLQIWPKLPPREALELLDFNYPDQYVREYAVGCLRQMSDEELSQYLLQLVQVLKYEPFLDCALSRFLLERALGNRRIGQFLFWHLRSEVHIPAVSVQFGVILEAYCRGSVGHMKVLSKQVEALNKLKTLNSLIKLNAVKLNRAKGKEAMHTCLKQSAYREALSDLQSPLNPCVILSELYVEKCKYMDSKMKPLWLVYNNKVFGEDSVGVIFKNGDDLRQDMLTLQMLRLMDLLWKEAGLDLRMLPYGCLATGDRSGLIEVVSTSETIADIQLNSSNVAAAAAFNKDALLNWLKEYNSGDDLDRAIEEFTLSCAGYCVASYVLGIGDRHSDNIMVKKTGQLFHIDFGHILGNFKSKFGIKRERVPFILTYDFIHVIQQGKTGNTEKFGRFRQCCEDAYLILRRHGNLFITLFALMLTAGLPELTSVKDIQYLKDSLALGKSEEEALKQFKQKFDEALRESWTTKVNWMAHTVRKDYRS
Target sequence in this assay (P27986 461-568 partner): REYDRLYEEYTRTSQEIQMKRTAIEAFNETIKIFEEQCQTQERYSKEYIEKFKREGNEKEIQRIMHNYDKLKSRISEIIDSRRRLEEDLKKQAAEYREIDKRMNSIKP

[2] = molecular target: mTOR (Homo sapiens, UniProt P42345); assay: Lanthascreen kinase binding assay, assay G; details: read-out: Assay G mTOR IC50
Procedure: Lanthascreen™ Kinase Binding Assay for mTOR (G)
Binding of an inhibitor to the kinase competes for binding with the tracer, resulting in a loss of FRET.
50 nL of compound dilutions were dispensed onto white 384-well small volume polystyrene plate.

[3] = molecular target: PI 4-kinase beta (Homo sapiens, UniProt Q9UBF8); assay: Kinase Glo Luminescent Kinase Assay (Kglo), assay D; assay type: biochemical; details: read-out: Assay D PI4Kβ IC50
Sequence of PI 4-kinase beta (Q9UBF8 whole entry): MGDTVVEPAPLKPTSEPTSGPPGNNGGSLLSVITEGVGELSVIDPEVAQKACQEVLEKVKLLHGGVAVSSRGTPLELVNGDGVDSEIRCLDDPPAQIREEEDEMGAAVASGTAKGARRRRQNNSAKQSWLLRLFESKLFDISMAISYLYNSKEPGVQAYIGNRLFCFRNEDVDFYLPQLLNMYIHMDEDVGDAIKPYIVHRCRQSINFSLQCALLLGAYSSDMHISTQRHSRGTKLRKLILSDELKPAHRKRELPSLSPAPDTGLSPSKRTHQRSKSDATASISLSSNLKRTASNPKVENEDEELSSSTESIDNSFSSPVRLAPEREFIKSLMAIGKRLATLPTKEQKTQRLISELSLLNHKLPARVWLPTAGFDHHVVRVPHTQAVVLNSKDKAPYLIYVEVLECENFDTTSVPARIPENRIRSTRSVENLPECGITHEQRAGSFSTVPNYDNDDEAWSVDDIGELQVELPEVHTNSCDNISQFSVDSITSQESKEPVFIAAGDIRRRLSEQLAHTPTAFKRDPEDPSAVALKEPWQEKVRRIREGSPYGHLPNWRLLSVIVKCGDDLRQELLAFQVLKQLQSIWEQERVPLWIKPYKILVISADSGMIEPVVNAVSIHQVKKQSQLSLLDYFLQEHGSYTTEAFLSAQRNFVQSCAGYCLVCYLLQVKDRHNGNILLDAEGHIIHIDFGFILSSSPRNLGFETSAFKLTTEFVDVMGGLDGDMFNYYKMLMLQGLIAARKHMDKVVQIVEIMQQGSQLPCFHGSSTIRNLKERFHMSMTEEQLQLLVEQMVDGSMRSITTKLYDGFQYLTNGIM

[4] = molecular target: Vps34 (Homo sapiens, UniProt Q8NEB9); assay: Kinase Glo Luminescent Kinase Assay (Kglo), assay C; assay type: biochemical; details: read-out: Assay C VPS34 IC50
Sequence of Vps34 (Q8NEB9 whole entry, species assumed): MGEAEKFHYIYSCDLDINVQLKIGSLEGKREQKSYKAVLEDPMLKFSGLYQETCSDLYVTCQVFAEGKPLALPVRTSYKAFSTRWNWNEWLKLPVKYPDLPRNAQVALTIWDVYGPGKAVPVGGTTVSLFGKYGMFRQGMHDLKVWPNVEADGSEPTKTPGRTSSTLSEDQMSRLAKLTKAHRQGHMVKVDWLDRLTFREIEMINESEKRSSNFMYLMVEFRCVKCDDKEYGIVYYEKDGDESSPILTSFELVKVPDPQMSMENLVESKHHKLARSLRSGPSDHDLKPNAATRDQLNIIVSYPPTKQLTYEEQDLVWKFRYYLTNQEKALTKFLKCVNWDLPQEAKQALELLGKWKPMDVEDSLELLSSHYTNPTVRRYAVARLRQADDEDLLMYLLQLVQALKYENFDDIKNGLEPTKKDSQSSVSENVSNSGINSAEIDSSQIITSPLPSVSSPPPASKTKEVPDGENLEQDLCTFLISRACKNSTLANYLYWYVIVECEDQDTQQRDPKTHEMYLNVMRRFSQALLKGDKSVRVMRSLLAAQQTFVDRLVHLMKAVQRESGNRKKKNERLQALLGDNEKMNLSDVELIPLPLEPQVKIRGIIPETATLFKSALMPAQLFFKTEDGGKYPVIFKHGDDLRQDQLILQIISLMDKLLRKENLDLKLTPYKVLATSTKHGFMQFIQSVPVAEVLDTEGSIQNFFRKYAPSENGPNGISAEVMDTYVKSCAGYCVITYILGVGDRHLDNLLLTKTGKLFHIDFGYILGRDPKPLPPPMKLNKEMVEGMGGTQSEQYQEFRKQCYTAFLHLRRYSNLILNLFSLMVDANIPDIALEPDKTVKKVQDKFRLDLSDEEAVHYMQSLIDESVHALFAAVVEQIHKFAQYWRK

[5] = molecular target: T1, PI 3-kinase beta; assay: Cellular assay I1, p-Akt (S473) in Rat-1 cells, Surefire format; assay type: cell-based; details: non-asterisked data: version I1 (Surefire format), Rat-1 cells; read-out: Assay I PI3Kβ IC50
[6] = molecular target: T2, PI 3-kinase delta (Homo sapiens, UniProt O00329); assay: Cellular assay J1, p-Akt (S473) in Rat-1 cells, Surefire format; assay type: cell-based; details: non-asterisked data: version J1 (Surefire format), Rat-1 cells; read-out: Assay J PI3Kδ IC50
[7] = molecular target: T2, PI 3-kinase delta; assay: TR-FRET Adapta assay, assay F; details: read-out: Assay F PI3Kδ IC50
Target sequence in this assay (O00329 whole entry): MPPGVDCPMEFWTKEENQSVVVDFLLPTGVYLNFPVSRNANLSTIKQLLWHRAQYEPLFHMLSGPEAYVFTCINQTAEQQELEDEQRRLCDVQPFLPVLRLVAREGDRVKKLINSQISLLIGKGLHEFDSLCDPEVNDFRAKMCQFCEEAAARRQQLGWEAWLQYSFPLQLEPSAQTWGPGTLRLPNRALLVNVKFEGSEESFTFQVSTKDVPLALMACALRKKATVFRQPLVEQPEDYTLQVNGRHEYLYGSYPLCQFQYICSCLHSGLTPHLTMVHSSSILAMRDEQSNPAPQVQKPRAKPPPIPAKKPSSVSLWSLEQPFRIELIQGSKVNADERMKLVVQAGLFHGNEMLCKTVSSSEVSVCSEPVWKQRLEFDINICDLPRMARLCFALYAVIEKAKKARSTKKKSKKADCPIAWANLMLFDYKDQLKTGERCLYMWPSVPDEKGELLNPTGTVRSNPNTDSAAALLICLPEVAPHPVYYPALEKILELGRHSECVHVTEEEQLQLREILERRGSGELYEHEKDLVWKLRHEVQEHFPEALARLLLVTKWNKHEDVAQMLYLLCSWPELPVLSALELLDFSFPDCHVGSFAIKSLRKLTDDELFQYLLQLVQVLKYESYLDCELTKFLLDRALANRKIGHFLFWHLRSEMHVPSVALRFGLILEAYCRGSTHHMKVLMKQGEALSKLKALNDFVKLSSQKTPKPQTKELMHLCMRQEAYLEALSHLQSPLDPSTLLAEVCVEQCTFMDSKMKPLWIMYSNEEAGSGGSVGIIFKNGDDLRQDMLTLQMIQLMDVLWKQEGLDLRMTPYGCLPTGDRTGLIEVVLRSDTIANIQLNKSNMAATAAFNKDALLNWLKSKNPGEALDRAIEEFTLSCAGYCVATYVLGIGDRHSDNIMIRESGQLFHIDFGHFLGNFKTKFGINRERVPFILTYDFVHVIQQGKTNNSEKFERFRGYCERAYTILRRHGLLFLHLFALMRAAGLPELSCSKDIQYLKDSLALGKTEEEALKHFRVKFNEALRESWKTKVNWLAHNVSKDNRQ
Target sequence in this assay (P27986 461-568 partner): as the sequence (P27986 461-568 partner) above

[8] = molecular target: PI 3-kinase alpha (Homo sapiens, UniProt P42336); assay: Kinase Glo Luminescent Kinase Assay (Kglo), assay A; assay type: biochemical; details: read-out: Assay A PI3Kα IC50
Sequence of PI 3-kinase alpha (P42336 whole entry): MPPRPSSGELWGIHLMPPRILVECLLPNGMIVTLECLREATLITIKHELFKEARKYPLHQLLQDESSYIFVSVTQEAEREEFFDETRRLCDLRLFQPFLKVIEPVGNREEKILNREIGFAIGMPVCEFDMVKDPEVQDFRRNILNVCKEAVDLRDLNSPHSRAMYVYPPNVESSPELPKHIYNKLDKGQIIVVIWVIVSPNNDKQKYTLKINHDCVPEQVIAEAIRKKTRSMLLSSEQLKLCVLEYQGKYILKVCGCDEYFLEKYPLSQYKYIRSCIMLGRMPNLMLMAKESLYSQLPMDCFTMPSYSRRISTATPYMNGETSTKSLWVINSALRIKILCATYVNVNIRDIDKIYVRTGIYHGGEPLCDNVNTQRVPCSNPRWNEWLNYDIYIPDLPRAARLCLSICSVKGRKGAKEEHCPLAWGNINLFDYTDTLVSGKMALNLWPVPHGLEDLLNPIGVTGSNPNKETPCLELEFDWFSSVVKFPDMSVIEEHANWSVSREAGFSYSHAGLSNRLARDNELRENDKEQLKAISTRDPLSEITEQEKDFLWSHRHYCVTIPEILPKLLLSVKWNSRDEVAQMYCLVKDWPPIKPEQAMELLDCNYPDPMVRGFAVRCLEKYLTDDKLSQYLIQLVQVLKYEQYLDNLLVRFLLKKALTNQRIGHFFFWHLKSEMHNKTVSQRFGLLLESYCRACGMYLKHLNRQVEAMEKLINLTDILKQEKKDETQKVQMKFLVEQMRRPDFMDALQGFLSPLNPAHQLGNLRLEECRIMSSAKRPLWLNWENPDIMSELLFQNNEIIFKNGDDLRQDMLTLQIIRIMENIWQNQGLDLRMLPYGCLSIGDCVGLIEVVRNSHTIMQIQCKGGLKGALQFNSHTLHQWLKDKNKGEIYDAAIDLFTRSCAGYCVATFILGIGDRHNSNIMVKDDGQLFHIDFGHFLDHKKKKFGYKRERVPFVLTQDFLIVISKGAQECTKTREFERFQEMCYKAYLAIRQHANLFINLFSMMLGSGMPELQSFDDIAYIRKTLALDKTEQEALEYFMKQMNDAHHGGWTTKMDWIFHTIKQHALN
Procedure: Kinase Glo Luminescent Kinase Assay (Kglo) for Pb 3-Kinase Alpha (A), Pb 3-Kinase Beta (B), Vps34 (C), Pb 4-Kinase Beta (D)
The Kinase Glo Luminescent Kinase Assay (Promega, Madison/Wis., USA) is a homogeneous HTS method of measuring kinase activity by quantifying the amount of ATP remaining in solution following a kinase reaction.
L-α-phosphatidylinositol (PI), provided as 10 mg/ml solution in methanol, was transferred into a glass tube and dried under a nitrogen beam. It was then resuspended in 3% OctylGlucoside (1-0-n-octyl-beta-D-glucopyranoside) by vortexing and stored at 4° C. 5 μL of a mix of PI/OctylGlucoside with the PI 3-kinase alpha and PI 3-kinase beta subtypes, or Vps34 or PI 4-kinase beta were added. Kinase reactions were started by the addition of 5 μl of an ATP-mix containing in a final volume 10 μL 10 mM TRIS-HCl pH 7.5, 3 mM MgCl2, 50 mM NaCl, 0.05% CHAPS, 1 mM DTT and 1 μM ATP at room temperature.
All fits were performed with the program XLfit4 (ID Business Solutions, Guildford, UK).

[9] = molecular target: PI 3-kinase gamma (Homo sapiens, UniProt P48736); assay: TR-FRET Adapta assay, assay E; assay type: biochemical; details: read-out: Assay E PI3Kγ IC50
[10] = Microsomal clearance assay (M); details: intrinsic clearance in rat liver microsomes
Procedure: The experiments were performed in 96-well glass plates at 37° C. on an automated Tecan EVO platform. Test compounds at a concentration of 10 mM in pure DMSO were diluted 1:1000 in water to 10 μM. […] Reactions were initiated by the addition of 150 μL of a cofactor solution containing 2 mM NADPH.

Row | SMILES | IC50 [1] [nM] | IC50 [2] [µM] | IC50 [3] [µM] | IC50 [4] [µM] | IC50 [5] [µM] | IC50 [6] [nM] | IC50 [7] [nM] | IC50 [8] [nM] | IC50 [9] [nM] | Assay M RLM CI(int) [10] [µL/min/mg]
1 | Cc1ccc(S(=O)(=O)NCC(C)(C)O)cc1-c1cnc(N)c(-c2cnn(C)n2)n1 [Example 18, 3-[5-Amino-6-(2-methyl-2H-[1,2,3]triazol-4-yl)-pyrazin-2-yl]-N-(2-hydroxy-2-methyl-propyl)-4-methyl-benzenesulfonamide] | 2800 | 5.55 | 8.6 | > 10 | 2.6 | – | – | – | – | –
2 | Cc1ncc(-c2nc(-c3cc(S(=O)(=O)NCCC(C)(C)O)ccc3C)cnc2N)s1 [Example 119.29] | 920 | 0.59 | 2.64 | 0.57 | 9.08 | 470 | 70 | – | – | –
3 | Cc1ccc(S(=O)(=O)NCC(C)(C)O)cc1-c1cnc(N)c(-c2nn(C)nc2C)n1 [Example 19, 3-[5-Amino-6-(2,5-dimethyl-2H-[1,2,3]triazol-4-yl)-pyrazin-2-yl]-N-(2-hydroxy-2-methyl-propyl)-4-methyl-benzenesulfonamide] | 140 | 0.42 | 3.85 | – | 0.28 | 70 | 20 | – | – | –
4 | Cc1cc(-c2nc(-c3cc(S(=O)(=O)NCC(C)(C)CN(C)C)ccc3C)cnc2N)ccn1 [Example 129.24, 3-(5-amino-6-(2-methylpyridin-4-yl)pyrazin-2-yl)-N-(3-(dimethylamino)-2,2-dimethylpropyl)-4-methylbenzenesulfonamide] | > 9100 | > 9.1 | > 9.1 | > 9.1 | – | – | 6600 | > 9100 | 200 | 755
5 | Cc1cc(-c2nc(-c3cc(S(=O)(=O)NCCN4CCOCC4)ccc3C)cnc2N)ccn1 [Example 129.28, 3-(5-amino-6-(2-methylpyridin-4-yl)pyrazin-2-yl)-4-methyl-N-(2-morpholinoethyl)benzenesulfonamide] | 5300 | > 9.1 | > 9.1 | > 9.1 | – | – | 1100 | 260 | 140 | 159
6 | Cc1ccc(S(=O)(=O)N2CCC(F)(F)CC2)cc1-c1cnc(N)c(-n2cncn2)n1 [Example 127.33] | > 10000 | > 10 | > 10 | > 10 | – | – | 8700 | 740 | 170 | 560
7 | Cc1nnc(-c2nc(-c3cc(S(=O)(=O)NCC(C)(C)O)ccc3C)cnc2N)o1 [Example 90, 3-(5-Amino-6-(5-methyl-1,3,4-oxadiazol-2-yl)pyrazin-2-yl)-N-(2-hydroxy-2-methylpropyl)-4-methylbenzenesulfonamide] | 940 | > 10 | > 10 | > 10 | – | – | 2000 | 2100 | 78 | 19
8 | Cc1cc(-c2nc(-c3cc(S(=O)(=O)NCC(C)(C)N4CCOCC4)ccc3C)cnc2N)ccn1 [Example 129.29, 3-(5-amino-6-(2-methylpyridin-4-yl)pyrazin-2-yl)-4-methyl-N-(2-methyl-2-morpholinopropyl)benzenesulfonamide] | 5400 | 6 | > 9.1 | > 9.1 | – | – | 1200 | 690 | 140 | >924
9 | Cc1ccc(S(=O)(=O)NCC(C)(C)O)cc1-c1cnc(N)c(-c2noc(C3CC3)n2)n1 [Example 91, 3-(5-Amino-6-(5-cyclopropyl-1,2,4-oxadiazol-3-yl)pyrazin-2-yl)-N-(2-hydroxy-2-methylpropyl)-4-methylbenzenesulfonamide] | 2550 | > 9.55 | > 9.55 | > 9.55 | – | – | 2100 | 2350 | 270 | 46
10 | Cc1ccc(S(=O)(=O)N2CC3(CC(O)C3)C2)cc1-c1cnc(N)c(-n2cncn2)n1 [Example 101, 2-(3-(5-Amino-6-(1H-1,2,4-triazol-1-yl)pyrazin-2-yl)-4-methylphenylsulfonyl)-2-azaspiro[3.3]heptan-6-ol] | 1700 | > 10 | 2.4 | > 10 | – | – | 3000 | 2000 | 210 | 39
11 | Cc1ccc(S(=O)(=O)NCC(C)(C)O)cc1-c1cnc(N)c(-n2cncn2)n1 [Example 6, 3-(5-Amino-6-(1H-1,2,4-triazol-1-yl)pyrazin-2-yl)-N-(2-hydroxy-2-methylpropyl)-4-methylbenzenesulfonamide] | 2310 | 9.01 | 7.12 | > 9.4 | 7.28 | – | – | – | – | –
12 | Cc1ccc(S(=O)(=O)NC2CCC(CO)CC2)cc1-c1cnc(N)c(-n2cncn2)n1 (stereo not shown) [Example 127.6] | 2200 | > 10 | > 10 | > 10 | – | – | 1500 | 390 | 160 | 20
13 | Cc1ncc(-c2nc(-c3cc(S(=O)(=O)NCC(C)(C)O)ccc3C)cnc2N)s1 [Example 7, 3-(5-Amino-6-(2-methylthiazol-5-yl)pyrazin-2-yl)-N-(2-hydroxy-2-methylpropyl)-4-methylbenzenesulfonamide] | 990 | 0.92 | 1.95 | 0.39 | 3.46 | – | – | – | – | –
14 | Cc1cc(-c2nc(-c3cc(S(=O)(=O)NC[C@@H](C)O)ccc3C)cnc2N)ccn1 [Example 129, (R)-3-(5-Amino-6-(2-methylpyridin-4-yl)pyrazin-2-yl)-N-(2-hydroxypropyl)-4-methyl benzene sulfonamide trifluoroacetic acid salt] | 7300 | > 9.1 | > 9.1 | > 9.1 | – | – | 550 | 130 | 24 | 28
15 | Cc1nc(C)c(-c2nc(-c3cc(S(=O)(=O)NCC(C)(C)O)ccc3C)cnc2N)s1 [Example 46.1, 3-(5-Amino-6-(2,4-dimethylthiazol-5-yl)pyrazin-2-yl)-N-(2-hydroxy-2-methylpropyl)-4-methylbenzenesulfonamide] | > 10000 | > 10 | > 10 | > 10 | – | – | 2600 | 1400 | 210 | 16
16 | Cc1ccc(S(=O)(=O)N2CCC(F)CC2)cc1-c1cnc(N)c(-n2cncn2)n1 [Example 127.34] | 5300 | > 10 | 3 | > 10 | – | – | 3200 | 1500 | 180 | 641
17 | Cc1cc(C)c(S(=O)(=O)NCC(C)(C)O)cc1-c1cnc(N)c(-n2cncn2)n1 [Example 121, 5-(5-Amino-6-(1H-1,2,4-triazol-1-yl)pyrazin-2-yl)-N-(2-hydroxy-2-methylpropyl)-2,4-dimethylbenzenesulfonamide] | 1200 | 5.2 | 0.51 | > 10 | – | – | 960 | 120 | 92 | 31
